Measurements as given in ChEMBL document CHEMBL3085716, “Hytramycins V and I, anti-Mycobacterium tuberculosis hexapeptides from a Streptomyces hygroscopicus strain” (J Nat Prod, 2013).
Converted amounts (≈) assume the structure as drawn.

Columns and labels:
Format in all cases: functional
[1] = tested on: Mycobacterium tuberculosis; assay: Antimycobacterial activity against capreomycin-resistant Mycobacterium tuberculosis under normoxic condition after 7 days by MABA assay; details: 168 h
[2] = tested on: Mycobacterium tuberculosis; assay: Antimycobacterial activity against Mycobacterium tuberculosis harboring luxABCDE under hypoxic condition after 10 days by MABA assay; details: for MIC90: Mycobacterium tuberculosis, 240 h
[3] = tested on: Mycobacterium tuberculosis; assay: Antimycobacterial activity against rifampin-resistant Mycobacterium tuberculosis ATCC 35838 under normoxic condition after 7 days by MABA assay; details: ATCC 35838, 168 h
[4] = tested on: Mycobacterium tuberculosis; assay: Antimycobacterial activity against isoniazid-resistant Mycobacterium tuberculosis ATCC 35822 under normoxic condition after 7 days by MABA assay; details: ATCC 35822, 168 h
[5] = tested on: Mycobacterium tuberculosis; assay: Antimycobacterial activity against Mycobacterium tuberculosis harboring luxABCDE under hypoxic condition after 10 days by MABA assay in presence of 4% bovine serum albumin; details: 240 h
[6] = tested on: Mycobacterium tuberculosis; assay: Ratio of MIC for Mycobacterium tuberculosis harboring luxABCDE under hypoxic condition in presence of 4% bovine serum albumin to MIC for Mycobacterium tuberculosis harboring luxABCDE under hypoxic condition in absence of 4% bovine serum albumin by MABA assay
[7] = tested on: Mycobacterium tuberculosis; assay: Antimycobacterial activity against cycloserine-resistant Mycobacterium tuberculosis ATCC 35826 under normoxic condition after 7 days by MABA assay; details: ATCC 35826, 168 h
[8] = tested on: Mycobacterium tuberculosis; assay: Ratio of MIC for Mycobacterium tuberculosis harboring luxABCDE under hypoxic condition in presence of 10% fetal bovine serum to MIC for Mycobacterium tuberculosis harboring luxABCDE under hypoxic condition in absence of 10% fetal bovine serum by MABA assay
[9] = tested on: Mycobacterium tuberculosis; assay: Antimycobacterial activity against moxifloxacin-resistant Mycobacterium tuberculosis under normoxic condition after 7 days by MABA assay; details: 168 h
[10] = tested on: Mycobacterium tuberculosis; assay: Antimycobacterial activity against streptomycin-resistant Mycobacterium tuberculosis ATCC 35820 under normoxic condition after 7 days by MABA assay; details: ATCC 35820, 168 h
[11] = tested on: Mycobacterium tuberculosis; assay: Antimycobacterial activity against Mycobacterium tuberculosis harboring luxABCDE under hypoxic condition after 10 days by MABA assay in presence of 10% fetal bovine serum; details: 240 h
[12] = tested on: Mycobacterium tuberculosis; assay: Antimycobacterial activity against kanamycin-resistant Mycobacterium tuberculosis ATCC 35827 under normoxic condition after 7 days by MABA assay; details: ATCC 35827, 168 h

| Structure (SMILES) | MIC90 [1] | MBC90 [2] | MIC90 [2] | MIC90 [3] | MIC90 [4] | MIC90 [5] | Ratio [6] | MIC90 [7] | Ratio [8] | MIC90 [9] | MIC90 [10] | MIC90 [11] | MIC90 [12] |
| --- | --- | --- | --- | --- | --- | --- | --- | --- | --- | --- | --- | --- | --- |
| CC(C)C[C@@H]1NC(=O)[C@H]2CCCNN2C(=O)[C@H](C)N(C)C(=O)[C@H]2CCCNN2C(=O)[C@@H]2CCCNN2C(=O)[C@@H](C(C)C)NC1=O | 12.1 µg/mL (≈ 19.1 µM) | 19.5 µg/mL (≈ 30.8 µM) | 2.4 µg/mL (≈ 3.79 µM) | 9.6 µg/mL (≈ 15.1 µM) | 12.1 µg/mL (≈ 19.1 µM) | 19.1 µg/mL | 10 | 20.6 µg/mL (≈ 32.5 µM) | 10 | 9 µg/mL (≈ 14.2 µM) | 11.6 µg/mL (≈ 18.3 µM) | 20.9 µg/mL | 12.4 µg/mL (≈ 19.6 µM) |
| CC[C@H](C)[C@H]1NC(=O)[C@H](CC(C)C)NC(=O)[C@H]2CCCNN2C(=O)[C@H](C)N(C)C(=O)[C@H]2CCCNN2C(=O)[C@@H]2CCCNN2C1=O | 4.8 µg/mL (≈ 7.41 µM) | 10.5 µg/mL (≈ 16.2 µM) | 1.5 µg/mL (≈ 2.32 µM) | 4.7 µg/mL (≈ 7.26 µM) | 4.7 µg/mL (≈ 7.26 µM) | 10.8 µg/mL | 10 | 7.4 µg/mL (≈ 11.4 µM) | 10 | 4 µg/mL (≈ 6.17 µM) | 4.7 µg/mL (≈ 7.26 µM) | 9.9 µg/mL | 4.9 µg/mL (≈ 7.56 µM) |
| NNC(=O)c1ccncc1 [ISONIAZID] | 0.1 µg/mL (≈ 0.729 µM) |  | > 140 µg/mL | 0.1 µg/mL (≈ 0.729 µM) | > 1.1 µg/mL | > 140 µg/mL |  | 0.03 µg/mL (≈ 0.219 µM) |  | 0.1 µg/mL (≈ 0.729 µM) | 0.03 µg/mL (≈ 0.219 µM) | > 140 µg/mL | 0.1 µg/mL (≈ 0.729 µM) |
| Cc1ncc([N+](=O)[O-])n1CCO [METRONIDAZOLE] | > 87.6 µg/mL |  | > 87.6 µg/mL | > 87.6 µg/mL | > 87.6 µg/mL | 13.5 µg/mL |  | > 87.6 µg/mL |  | > 87.6 µg/mL | > 87.6 µg/mL | 5.3 µg/mL | > 87.6 µg/mL |
| CO[C@H]1/C=C/O[C@@]2(C)Oc3c(C)c(O)c4c(O)c(c(/C=N/N5CCN(C)CC5)c(O)c4c3C2=O)NC(=O)/C(C)=C\C=C\[C@H](C)[C@H](O)[C@@H](C)[C@@H](O)[C@@H](C)[C@H](OC(C)=O)[C@@H]1C [RIFAMPIN] | 0.04 µg/mL (≈ 0.0486 µM) | 0.5 µg/mL (≈ 0.608 µM) | < 0.1 µg/mL | > 3.3 µg/mL | 0.01 µg/mL (≈ 0.0122 µM) | 0.2 µg/mL |  | < 0.01 µg/mL |  | 0.1 µg/mL (≈ 0.122 µM) | < 0.01 µg/mL | 0.1 µg/mL | < 0.01 µg/mL |
| CN[C@@H]1[C@H](O[C@H]2[C@H](O[C@H]3[C@H](O)[C@@H](O)[C@H](N=C(N)N)[C@@H](O)[C@@H]3N=C(N)N)O[C@@H](C)[C@]2(O)C=O)O[C@@H](CO)[C@H](O)[C@H]1O [STREPTOMYCIN] | 1.1 µg/mL (≈ 1.89 µM) |  | 0.6 µg/mL (≈ 1.03 µM) | 0.1 µg/mL (≈ 0.172 µM) | 0.1 µg/mL (≈ 0.172 µM) | 0.4 µg/mL |  | 0.4 µg/mL (≈ 0.688 µM) |  | 0.5 µg/mL (≈ 0.86 µM) | > 9.3 µg/mL | 0.6 µg/mL | 1.1 µg/mL (≈ 1.89 µM) |
